Experiments:
[1] = test system: conscious, telemetry-instrumented rats; assay: Telemetry-instrumented conscious rats, single oral dose hemodynamics; format: in vivo; details: conscious rat, BAF312 0.3, 3.0, 30 mg/kg single oral dose
Protocol: (§1) Mean arterial pressure was assessed in conscious, freely moving male Sprague Dawley rats (n = 6–8/group; Charles River) instrumented with telemetry transmitters (DSI-Ponemah) and housed in metabolism cages as previously described, [26]. Tested compounds were solubilized in a 0.5% Methylcellulose/0.015% Tween 80 vehicle that was also dosed alone (p.o./QD, 5 mL/kg) as a control in the study. FTY720 was administered p.o. at 0.3, 1.0, 3.0, 10.0 mg/kg p.o. as a single dose or p.o./QD at 0.5, 1.5, and 5.0 mg/kg in a chronic study. BAF312 was administered p.o/QD at 0.3, 3.0, and 30 mg/kg as a single dose and in a chronic study. Mean arterial pressure and heart rate are shown as 1-hr and/or 24-hr mean values±SEM as described in the results. Blood samples in satellite rats were withdrawn at various timepoints as described in the results for analysis of plasma concentrations of the parent compound and, in the case of FTY720, also the phosphorylated metabolite, (S)-FTY720-P. Statistical analysis for the single-dose acute studies was based on one-way ANOVA to compare the treatment groups vs. vehicle for each time period after dosing (0–24 hrs, 24–48 hrs, and 48–72 hrs); statistical significance (p<0.05) was detected by Dunnett’s post-hoc test to compare treatment with vehicle controls. The statistical analysis in the chronic studies were based on one-way ANOVA with repeated measures to compare the treatment arms; statistical significance (p<0.05) was detected by Dunnett’s post-hoc test to compare treatment with vehicle controls.

[2] = target: T1, human S1P4 (Homo sapiens, UniProt O95977); assay: B arrestin recruitment assay, Tango EDG6-bla U2OS cells; format: cell-based
T1 construct: host or cells: U2OS (Tango EDG6-bla)
T1 sequence (O95977 1-384): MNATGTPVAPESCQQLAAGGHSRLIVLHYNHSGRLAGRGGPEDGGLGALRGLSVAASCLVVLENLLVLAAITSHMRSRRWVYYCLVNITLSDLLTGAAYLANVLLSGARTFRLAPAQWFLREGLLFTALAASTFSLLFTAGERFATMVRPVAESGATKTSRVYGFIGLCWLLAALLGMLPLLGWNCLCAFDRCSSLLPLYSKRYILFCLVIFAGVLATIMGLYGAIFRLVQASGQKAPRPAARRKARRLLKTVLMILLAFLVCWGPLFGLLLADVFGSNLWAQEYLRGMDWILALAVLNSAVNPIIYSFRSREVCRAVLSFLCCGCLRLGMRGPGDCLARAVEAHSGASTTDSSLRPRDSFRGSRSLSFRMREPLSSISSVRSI
Protocol: Tango™ EDG1-bla U2OS cells (Human S1P1), Tango™ EDG3-bla U2OS cells (human S1P3), Tango™ EDG6-bla U2OS cells (human S1P4) and Tango™ EDG8-bla U2OS cells (human S1P5) cell lines were cultured and assayed according to manufacturers instructions with one modification; agonists incubated on the cells for 18 hours prior to addition of the GenBlazer substrate. Final DMSO concentration in the assay is 1%.

[3] = Plasma concentrations during escalating i.v. infusion in anesthetized rats; format: in vivo; details: male, Sprague Dawley, plasma, iv, anesthetized rat, BAF312 i.v.
Protocol: The cardiovascular effects of FTY720 and BAF312 were tested in anesthetized rats (180–200 g). In brief, male Sprague Dawley rats (Charles River) were anesthetized with Inactin (110 mg/kg i.p.) and a tracheotomy performed. The femoral artery and veins were catheterized for measurement of mean arterial pressure and heart rate, collection of blood samples at 20-min intervals (0.2 mL/sample), and for compound infusion/hydration as previously described, [24]; blood samples were also withdrawn in vehicle-treated control rats. FTY720, infused as a hydrochloride salt (0.1, 0.3, 1.0 mg/kg/20-min free base equivalent solubilized in a 100% PEG-400 vehicle), or BAF312 (0.5, 1.5, 5.0 mg/kg/20-min solubilized in a 100% PEG-400 vehicle) were administered via three escalating 20-min infusions (0.011 mL/min) followed by a 1-hr post-treatment period. A blood sample was withdrawn at 20, 40, 60, and 120-minutes for analysis of plasma concentrations of the parent compound, and in the case of FTY720, also the phosphorylated metabolite, (S)-FTY720-P. Statistical significance (p<0.05) was based on a t-test comparing treatment change from baseline (baseline was defined as the period from −30 to 0 minutes) vs. vehicle controls change from baseline at each timepoint without adjustment for multiple comparisons. In a separate group of anesthetized rats in which left ventricular (LV) contractility was also recorded with a Millar pressure transducer introduced into the left ventricle, BAF312 was infused in the same dosing regimen as the studies described above (0.5, 1.5, 5.0 mg/kg/20-min solubilized in a 100% PEG-400 vehicle) and effects on LV dP/dtmax were recorded.

[4] = Plasma concentrations in repeat-dosing study, satellite rats; format: in vivo, rat; details: for concentration at 4 h / concentration at 8 h / concentration at 24 h: male, Sprague Dawley, rat, plasma, po, mean±SEM; for Plasma concentration at Tmax (4 hrs) / Terminal plasma concentration at Tmax: satellite rats; for Plasma concentration at Tmax (4 hrs): day 1; for Terminal plasma concentration at Tmax: last day of study
Protocol: as §1

With `CCc1cc(/C(C)=N/OCc2ccc(C3CCCCC3)c(C(F)(F)F)c2)ccc1CN1CC(C(=O)O)C1` [BAF312] the “effect on heart rate” value [1] was “no statistically significant effect”, the “effect on mean arterial pressure” value [1] was “no statistically significant effect” and the “selectivity over S1P4” value ([2]; B arrestin EC50s) was 100 fold. It also gave an EC50 ([2]; B arrestin, 18 hours agonist incubation) of 245 nM, a concentration at 20 min ([3]; end of 0.5 mg/kg/20 min infusion) of 1430 ± 707 nM and a concentration at 40 min ([3]; end of 1.5 mg/kg/20 min infusion) of 3220 ± 210 nM. It also gave a concentration at 60 min ([3]; end of 5.0 mg/kg/20 min infusion) of 7250 ± 517 nM, a concentration at 120 min ([3]; end of 60-min post-treatment period) of 2820 ± 276 nM and a concentration at 4 h ([4]; 0.3 mg/kg/day, BAF312 0.3 mg/kg/d p.o., Terminal (last day), 4 hr post-dose) of 81 ± 8 nM. For the same compound, the concentration at 8 h ([4]; 0.3 mg/kg/day, BAF312 0.3 mg/kg/d p.o., Terminal (last day), 8 hr post-dose) was 54 ± 7 nM, the concentration at 24 h ([4]; 0.3 mg/kg/day, BAF312 0.3 mg/kg/d p.o., Terminal (last day), 24 hr post-dose) was 13 ± 6 nM and the concentration at 4 h ([4]; 0.3 mg/kg/day, BAF312 0.3 mg/kg/d p.o., Day 1, 4 hr post-dose) was 91 ± 7 nM. It also gave a concentration at 8 h ([4]; 0.3 mg/kg/day, BAF312 0.3 mg/kg/d p.o., Day 1, 8 hr post-dose) of 65 ± 8 nM, a concentration at 24 h ([4]; 0.3 mg/kg/day, BAF312 0.3 mg/kg/d p.o., Day 1, 24 hr post-dose) of 0 nM and a concentration at 4 h ([4]; 3 mg/kg/day, BAF312 3.0 mg/kg/d p.o., Terminal (last day), 4 hr post-dose) of 735 ± 73 nM. The concentration at 8 h ([4]; 3 mg/kg/day, BAF312 3.0 mg/kg/d p.o., Terminal (last day), 8 hr post-dose) was 480 ± 33 nM, the concentration at 24 h ([4]; 3 mg/kg/day, BAF312 3.0 mg/kg/d p.o., Terminal (last day), 24 hr post-dose) was 98 ± 8 nM and the concentration at 4 h ([4]; 3 mg/kg/day, BAF312 3.0 mg/kg/d p.o., Day 1, 4 hr post-dose) was 685 ± 113 nM. The concentration at 8 h ([4]; 3 mg/kg/day, BAF312 3.0 mg/kg/d p.o., Day 1, 8 hr post-dose) was 584 ± 81 nM, the concentration at 24 h ([4]; 3 mg/kg/day, BAF312 3.0 mg/kg/d p.o., Day 1, 24 hr post-dose) was 103 ± 9 nM and the concentration at 4 h ([4]; 30 mg/kg/day, BAF312 30.0 mg/kg/d p.o., Terminal (last day), 4 hr post-dose) was 8330 ± 650 nM. The concentration at 8 h ([4]; 30 mg/kg/day, BAF312 30.0 mg/kg/d p.o., Terminal (last day), 8 hr post-dose) was 5280 ± 443 nM, the concentration at 24 h ([4]; 30 mg/kg/day, BAF312 30.0 mg/kg/d p.o., Terminal (last day), 24 hr post-dose) was 942 ± 117 nM and the concentration at 4 h ([4]; 30 mg/kg/day, BAF312 30.0 mg/kg/d p.o., Day 1, 4 hr post-dose) was 6400 ± 390 nM. The concentration at 8 h ([4]; 30 mg/kg/day, BAF312 30.0 mg/kg/d p.o., Day 1, 8 hr post-dose) was 4820 ± 617 nM, the concentration at 24 h ([4]; 30 mg/kg/day, BAF312 30.0 mg/kg/d p.o., Day 1, 24 hr post-dose) was 721 ± 211 nM and the “Plasma concentration at Tmax (4 hrs)” value ([4]; BAF312 0.3 mg/kg/d p.o.) was 91 ± 7 nM. For the same compound, the “Terminal plasma concentration at Tmax” value ([4]; BAF312 0.3 mg/kg/d p.o.) was 81 ± 8 nM, the “Plasma concentration at Tmax (4 hrs)” value ([4]; BAF312 3.0 mg/kg/d p.o.) was 685 ± 113 nM and the “Terminal plasma concentration at Tmax” value ([4]; BAF312 3.0 mg/kg/d p.o.) was 735 ± 73 nM. The “Plasma concentration at Tmax (4 hrs)” value ([4]; BAF312 30 mg/kg/d p.o.) was 6395 ± 390 nM and the “Terminal plasma concentration at Tmax” value ([4]; BAF312 30 mg/kg/d p.o.) was 8328 ± 650 nM.
